Consider 1 compound from patent publication US8486949B2, “Use of azaperone for improving growth performance” (Elanco Animal Health Ireland Limited, priority 2008, dated 2013).

Data set [1] has as its system weaned pigs. Nature of the data set: Preclinical study of the effects of azaperone administered via drinking water: body weight per pig. The class given is in vivo. On the procedure:
Preclinical Study of the Effects of Azaperone Administered Via Drinking Water The study was performed in weaned pigs to investigate the effect of azaperone that was continuously orally administered via drinking water on behaviour, feed conversion, growth and homogeneity of growth. Groups of approximately 250 pigs were enrolled in the study starting from the moment they were weaned. The pigs were housed according to everyday farming conditions in a conventional pig farm. All pigs were housed in similar buildings. Each group was housed in 2 compartments, gilts and barrows were housed in separate compartments. Pigs were kept in pens of approximately 12 individuals each. After weaning, the piglets were housed in continuous artificial light for the first 48 hours. Afterwards, pigs were housed in continuous darkness for the further duration of the study, except during observations (twice a day). During the course of the study, pigs were not vaccinated. A metaphylactic colistine treatment via drinking water was applied in each group starting from the fifth day after weaning. Treatment continued for seven days. Pigs were fed ad libitum. Troughs were filled automatically with a computerized system that records the supplied weight of feed per pen. During the first ten days of the nursery period, pigs were fed a pelleted weaner feed which had also been available to the piglets in the farrowing unit. Between the 10th and 15th day at the nursery, the weaner feed was gradually replaced by grower pellets which have been given until the 35th day. Finally a switch was made between the 35th and the 40th day from grower pellets to starter pellets. Tap water was available during the whole period of the study and was supplied via a water nipple in the feeding trough. The drinking water comprising azaperone was obtained by diluting Stresnil™ injection in water to obtain a concentration of 6 mg azaperone per liter drinking water. A primary dilution was prepared by diluting 90 ml of Stresnil™ 4% injectable solution with tap water to obtain 6 liters of preparation. This primary dilution was linked for 24 hours with an automatic dosing system which continuously diluted the preparation in the drinking water at a rate of 1 to 100. One preparation of the primary dilution was sufficient to treat 600 liters of drinking water which exceeded the anticipated daily consumed volume of water by the pigs in one compartment. The two following days, a new primary dilution was made fresh each morning and linked to the automatic dosing system for 24 hours. This study was a controlled parallel study with 4 sequential groups of approximately 250 weaned pigs each. The first and third group were treated with azaperone via the drinking water for 3 consecutive days. The second and fourth group were control groups treated with placebo (plain drinking water). After the completion of these four groups, two additional groups (one treated with azaperone and one control group) were included in the study to investigate more in detail the effect of the azaperone treatment on the behaviour of the pigs. In each of these additional groups, 5 pens of approximately 12 pigs were enclosed. On day one of the test period, water containing 6 mg azaperone per liter or placebo, was made available. Starting from the fourth day, the drinking water no longer contained azaperone. All pigs followed the normal procedures for further fattening. No pigs were brought to the slaughterhouse during the study (3 days dosing and 39 days follow-up). Body weights were determined for all pigs in groups 1 to 4. The body weight of each individual animal was determined a first time at the start of the study, just before movement to the nursery and a second time at the end of the study, after a period of 42 days in the nursery. […]

The test system of data set [2] is weaned pigs. The data set can be described thus: Behaviour of the animals per pen (groups 5 and 6: pigs lying down, eating or drinking, hierarchical fights). The class given is in vivo. Here is the method: This study was a controlled parallel study with 4 sequential groups of approximately 250 weaned pigs each. The first and third group were treated with azaperone via the drinking water for 3 consecutive days. The second and fourth group were control groups treated with placebo (plain drinking water). After the completion of these four groups, two additional groups (one treated with azaperone and one control group) were included in the study to investigate more in detail the effect of the azaperone treatment on the behaviour of the pigs. In each of these additional groups, 5 pens of approximately 12 pigs were enclosed.
In order to assess the effect of the azaperone treatment on the behaviour of the animals after weaning, the occurrence of hierarchical fights was followed in groups 1 to 4 and recorded by the Principal Investigator during a period of 1 week after weaning. Every day a behaviour score of 0 to 2 was given to each pen:
In groups 1 to 4, behaviour of the pigs was always scored as normal although hierarchical fighting was reported on the farm. […] These two additional groups (one treated with azaperone and one control group) were closely monitored for behavioural changes. During the first 7 hours after weaning and movement to the nurseries, the occurrence and severity of hierarchical fights, the number of pigs laying down, and the number of pigs eating or drinking, was recorded. […]

For a further data set, the system named is pigs. As to conditions: cited from earlier work.

As for `O=C(CCCN1CCN(c2ccccn2)CC1)c1ccc(F)cc1` [azaperone], in the data set on weaned pigs [1] (6 mg azaperone per liter drinking water for 3 days, 42 day test period, mean±SD), the “body weight gained during the study” value turned out to be 16.3 ± 3.31 kg. For the same compound, the “Final BW CoV (coefficient of variation)” value in the data set on weaned pigs [1] (after 42 days in the nursery) is listed as 18%. For the same compound, the “Final BW” value in the data set with weaned pigs [1] (after 42 days in the nursery, 6 mg/liter drinking water for first 3 days) worked out at 23.62 kg. The “body weight gain CoV (coefficient of variation)” value in the data set with weaned pigs [1] (over 42 days) was determined as 20%. The compound further registered a body weight gain with weaned pigs [1] (over 42 days, 6 mg/liter drinking water for first 3 days) of 16.34 kg. Further, the “homogeneity of body weight distribution at the end of the testing period” value in the data set with weaned pigs [1] (versus placebo groups) is given as “more homogenous body weight distribution”. Moreover, the “number of pigs lying down or eating versus placebo” value in the data set on weaned pigs [2] (groups 5 and 6, first 7 hours after initiation of treatment, 6 mg/liter drinking water) is “no difference”. Besides, the sedative effect result in the data set with weaned pigs [2] (oral via drinking water, 6 mg/liter) is listed as “absence of a sedative effect”. For the same compound, in the data set on pigs (intramuscular administration to pigs, Gonyou et al., J. Anim. Sci. 1988), the “effect on weight gain, feed consumption or feed efficiency” value was “did not had significant effect”. Also, the “effect in promoting relative growth rate” value in the data set on pigs (intramuscular injection to pigs, Blackshaw, Aust. Vet. J. 1981) is given as “no effect”. In addition, the weight gain entry with pigs (intramuscular injection to pigs, Porter and Slusser, Veterinary Medicine 1985) is “increased weight gain”.
